Here are results for three molecules from PMC6099690, “TRPA1 Modulating C14 Polyacetylenes from the Iranian Endemic Plant Echinophora platyloba” (Molecules : A Journal of Synthetic Chemistry and Natural …, 2018).

Experiment [1] has as its target T1, rat TRPA1 (Rattus norvegicus, UniProt Q6RI86).
T1 construct: expressed in transfected cells
The experiment is described as follows: Calcium influx (Fluo-4 fluorimetric) agonist assay in HEK293 cells transfected with rTRPA1. In kind it is cell-based. Conditions: for EC50: half-maximal increase in [Ca2+]i, read-out: Potency EC50; for Efficacy: maximum [Ca2+]i elevation as % of allylisothiocyanate (AITC) at 100 μM. The procedure: (§1) HEK-293 cells stably over-expressing recombinant rat TRPA1, TRPM8, TRPV2-4, TRPM8 or human TRPV1 were selected by Geneticin 600 μg mL^−1, grown on 100-mm diameter Petri dishes as monolayers in minimum essential medium supplemented with non-essential amino acids, 10% fetal bovine serum, and 2 mM glutamine, and maintained under 5% CO2 at 37 °C. Stable expression of each channel was checked by quantitative real time-PCR. The effect of the substances on intracellular Ca^2+ concentration [Ca^2+]i was determined using Fluo-4, a selective intracellular fluorescent probe for Ca^2+. Toward this aim, on the day of the experiment, cells over-expressing the TRP channels were loaded for 1 h in the dark at room temperature with the methyl ester Fluo4-AM (4 μM in DMSO containing 0.02% Pluronic F-127, Invitrogen, Carlsbad, CA, USA) in minimum essential medium without fetal bovine serum. After the loading, cells were washed twice in Tyrode’s buffer (145 mM NaCl, 2.5 mM KCl, 1.5 mM CaCl2, 1.2 mM MgCl2, 10 mM D-glucose, and 10 mM HEPES, pH 7.4), re-suspended in Tyrode’s buffer, and transferred (about 100,000 cells) to the quartz cuvette of the spectrofluorimeter (Perkin-Elmer LS50B; PerkinElmer Life and Analytical Sciences, Waltham, MA, USA) under continuous stirring. [Ca^2+]i was determined before and after the addition of various concentrations of test compounds by measuring cell fluorescence at 25 °C (λEX = 488 nm, λEM = 516 nm). Curve fitting (sigmoidal dose-response variable slope) and parameter estimation were performed with GraphPad Prism® (GraphPad Software Inc., San Diego, CA, USA). Potency was expressed as the concentration of test substances exerting a half-maximal agonist effect (i.e., half-maximal increases in [Ca^2+]i (EC50), calculated by using GraphPad®. The efficacy of the agonists was first determined by normalizing their effect to the maximum Ca^2+ influx effect on [Ca^2+]i observed with application of 4 μM ionomycin (Sigma, St. Louis, MO, USA). The increases in fluorescence in wild-type HEK293 cells (i.e., not transfected with any construct) were used as baseline and subtracted from the values obtained from transfected cells. The effects of TRPA1 agonists are expressed as a percentage of the effect obtained with 100 μM allyl isothiocyanate (AITC). Antagonist/desensitizing behavior was evaluated for TRPA1 by adding the test compounds in the quartz cuvette 5 min before stimulation of cells with the agonist AITC (100 μM). Data are expressed as the concentration exerting a half maximal inhibition of agonist-induced [Ca^2+]i elevation (IC50), which was calculated again using GraphPad Prism® software. The effect on [Ca^2+]i exerted by agonist alone was taken as 100%. Dose-response curves were fitted by a sigmoidal regression with variable slope. All determinations were at least performed in triplicate. Statistical analysis of the data was performed by analysis of variance at each point using ANOVA followed by Bonferroni’s test.

For experiment [2], the target named is T1, rat TRPA1. The experiment is described as follows: Antagonist/desensitizing assay: inhibition of AITC (100 μM)-induced [Ca2+]i elevation in rTRPA1-HEK293 cells. Format: cell-based. Conditions: compound added 5 min before stimulation with AITC 100 μM; HEK293 cells transfected with rTRPA1; read-out: IC50 inh TRPA1 (AITC 100 μM). The procedure:
as §1, with “Potency was expressed as the concentration of test substances exerting a half-maximal agonist effect (i.e., half-maximal increases in [Ca^2+]i (EC50), calculated by using GraphPad®. The efficacy of the agonists was first determined by normalizing their effect to the maximum Ca^2+ influx effect on [Ca^2+]i observed with application of 4 μM ionomycin (Sigma, St. Louis, MO, USA). The increases in fluorescence in wild-type HEK293 cells (i.e., not transfected with any construct) were used as baseline and subtracted from the values obtained from transfected cells. The effects of TRPA1 agonists are expressed as a percentage of the effect obtained with 100 μM allyl isothiocyanate (AITC).” left out, “The effect on [Ca^2+]i exerted by agonist alone was taken as 100%. Dose-response curves were fitted by a sigmoidal regression with variable slope. All determinations were at least performed in triplicate. Statistical analysis of the data was performed by analysis of variance at each point using ANOVA followed by Bonferroni’s test.” left out

T1 sequence (Q6RI86 whole entry): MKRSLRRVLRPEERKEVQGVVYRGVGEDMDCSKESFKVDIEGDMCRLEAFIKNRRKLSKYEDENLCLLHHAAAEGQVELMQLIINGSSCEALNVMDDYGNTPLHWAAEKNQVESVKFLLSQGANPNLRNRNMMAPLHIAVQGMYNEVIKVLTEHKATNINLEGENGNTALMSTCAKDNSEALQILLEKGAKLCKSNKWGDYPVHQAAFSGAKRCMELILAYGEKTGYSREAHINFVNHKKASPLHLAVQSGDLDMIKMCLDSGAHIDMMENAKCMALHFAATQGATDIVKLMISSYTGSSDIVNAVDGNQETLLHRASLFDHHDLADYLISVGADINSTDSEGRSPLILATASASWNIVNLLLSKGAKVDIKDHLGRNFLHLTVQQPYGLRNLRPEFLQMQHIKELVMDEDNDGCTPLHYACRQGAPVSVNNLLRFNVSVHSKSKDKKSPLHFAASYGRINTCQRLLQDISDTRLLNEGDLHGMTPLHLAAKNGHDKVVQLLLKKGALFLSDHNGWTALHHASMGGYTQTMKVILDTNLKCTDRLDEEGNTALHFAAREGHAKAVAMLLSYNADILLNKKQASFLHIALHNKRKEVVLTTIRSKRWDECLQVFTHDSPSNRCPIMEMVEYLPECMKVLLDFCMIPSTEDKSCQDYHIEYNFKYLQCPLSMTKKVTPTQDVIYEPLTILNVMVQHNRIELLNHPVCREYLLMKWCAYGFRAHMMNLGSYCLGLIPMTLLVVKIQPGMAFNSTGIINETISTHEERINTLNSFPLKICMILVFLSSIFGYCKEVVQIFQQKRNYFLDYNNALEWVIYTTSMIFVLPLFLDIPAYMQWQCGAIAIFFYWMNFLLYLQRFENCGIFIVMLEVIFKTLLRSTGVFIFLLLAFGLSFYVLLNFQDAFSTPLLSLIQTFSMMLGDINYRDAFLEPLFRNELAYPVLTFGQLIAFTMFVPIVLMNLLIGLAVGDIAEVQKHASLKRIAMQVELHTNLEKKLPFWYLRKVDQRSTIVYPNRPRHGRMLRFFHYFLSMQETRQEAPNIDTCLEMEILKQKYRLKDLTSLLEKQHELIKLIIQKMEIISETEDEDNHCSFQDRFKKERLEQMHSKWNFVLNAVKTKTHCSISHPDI

Take `C/C=C\C#CC#CCCc1cccc(=O)o1` [Echinophorin B (4), echinophorin B]: in experiment [1], the EC50 is 25 ± 3 µM and the Efficacy is reported as 82.0 ± 2.8 % AITC. In addition, the Efficacy result in experiment [1] (listed as 4) is “about 80 % AITC”. Moreover, the IC50 in experiment [2] was found to be 37.2 ± 0.8 µM.
Take `CCCC#CC#CCCc1cccc(=O)o1` [Echinophorin A (5), echinophorin A]: in experiment [1], the EC50 was 20.3 ± 3.2 µM and the Efficacy amounted to 81.0 ± 3.3 % AITC. Further, in experiment [1] (listed as 5), the Efficacy entry is “about 80 % AITC”. For the same molecule, the concentration for half-maximal inhibition (IC50) in experiment [2] turned out to be 45.7 ± 3.5 µM.
Regarding `CC#CC#CC#CCCc1cccc(=O)o1` [Echinophorin D (3), echinophorin D], the EC50 in experiment [1] worked out at 30.9 ± 2.8 µM. For the same molecule, the Efficacy in experiment [1] is 51.7 ± 1.3 % AITC; in experiment [1] (listed as 3), “about 52 % AITC”. Besides, the IC50 in experiment [2] is 87 ± 1.5 µM.

In general, EC50 refers to the concentration needed to bring the measured effect to its halfway point. Broadly, the IC50 is the midpoint of a concentration-inhibition curve.
